This note sets out measurements from patent publication US5861476A, “Peptides and compounds that bind to the IL-1 receptor” (Affymax Technologies N.V., priority 1995, dated 1999).

Where a SMILES comes first, the peptide text is derived from it. Where no end group is shown, it is not given here. [ ]: non-standard residue; d: D form. Bpa = N[C@@H](Cc1ccc(C(=O)c2ccccc2)cc1)C(=O)O; 1Nal = N[C@@H](Cc1cccc2ccccc12)C(=O)O; Aze = O=C(O)[C@@H]1CCN1; Aib = CC(C)(N)C(=O)O; Sar = CNCC(=O)O

The target in the first test is T1, IL-1RtI (Homo sapiens, UniProt P14778).
T1 construct: made in house; host or cells: recombinant host cells (one form soluble from baculovirus transformed host cells; another PIG-tailed and cleaved from the cell surface)
T1 sequence (P14778 18-336): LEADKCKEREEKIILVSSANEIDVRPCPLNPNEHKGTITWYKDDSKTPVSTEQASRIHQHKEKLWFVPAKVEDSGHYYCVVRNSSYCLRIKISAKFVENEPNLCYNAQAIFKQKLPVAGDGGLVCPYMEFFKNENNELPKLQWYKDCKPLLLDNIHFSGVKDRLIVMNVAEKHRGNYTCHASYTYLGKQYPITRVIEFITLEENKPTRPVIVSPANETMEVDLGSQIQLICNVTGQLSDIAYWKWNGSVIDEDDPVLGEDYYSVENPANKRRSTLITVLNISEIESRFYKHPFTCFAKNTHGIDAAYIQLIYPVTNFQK
Nature of the test: Inhibition of 125I-IL-1α binding to IL-1RtI (Example 3).
Details: not given
How it is done:
This example provides the results of experiments conducted to determine an approximate IC50 for certain peptides of the invention. IC50 as used herein refers to the concentration of a compound which will inhibit 50% of the binding between a receptor and its ligand, e.g. IL-1RtI and IL-1. Stock solutions of each peptide were prepared. The appropriate amount of the peptide was dissolved in DMSO, and then nineteen volumes of binding buffer (RPMI 1640, 1% BSA, 20 mM HEPES, pH 7.2-7.3, and 0.1% sodium azide) were added to yield a 1 mM peptide, 5% DMSO stock solution.
One assay utilized a truncated IL-1RtI which had been immobilized on 96-well plates with an appropriate antibody, typically a non-blocking high affinity antibody. In other assays, cells expressing "full-length" IL-1RtI were used with results that yielded IC50 values about 5 to 10 fold lower than those determined using the truncated receptor. The cells were seeded onto Falcon 3072 96-well plates at about 10^5 cells per well, and the plates were incubated overnight at 37° C. in media containing serum. The following morning, the cells were checked to ensure that the cells were confluent and adhered to the bottom of the wells.
According to either assay protocol, the plates were then washed three times with binding buffer, and then 50 μl of binding buffer and 25 μl of a peptide solution (either the stock solution or a dilution thereof; each stock was subjected to five three fold dilutions) were added to each well. Then 25 μl of binding buffer containing ^125 I-IL-1α (final concentration of 90 pM) were added to each well to begin the assay. Each assay was carried out in duplicate. The plates were then incubated for two hours at 4° C. For peptides having particularly high affinities, the assay was run in 24 well plates allowing for higher levels of ligand (possible total volume of 2.5 ml instead of 100 μl in the 96 well plate), thereby minimizing the potential for ligand depletion.
After the two hour incubation, the wells were rinsed three times with ice cold PBS (a semi-automated cell harvesting device was used to conduct the rinse). The receptors or cells were then detached from the plates by adding 100 μl of 0.1N NaOH to each well and incubating the plates at room temperature for 20 minutes. After the 20 minute incubation, about 75 μl of the suspension was counted on a gamma counter, and the IC50 for each peptide was determined using computer assistance and the results of the gamma counting.
Usually IC50 stands for the point on the concentration scale where inhibition reaches its midpoint. In turn, `C[C@@H](O)[C@H](NC(=O)[C@H](Cc1c[nH]c2ccccc12)NC(=O)[C@H](CCC(=O)O)NC(=O)[C@@H](N)Cc1ccccc1)C(=O)N1CCC[C@H]1C(=O)N[C@H](CO)C(=O)N[C@@H](Cc1ccc(O)cc1)C(=O)N[C@@H](Cc1ccc(O)cc1)C(=O)N[C@@H](CCC(N)=O)C(=O)N1CC[C@H]1C(=O)N[C@@H](Cc1ccc(O)cc1)C(N)=O` [FEWTPsYYQJY-NH2] (H-FEWTP[dS]YYQ[Aze]Y-NH2) gave an IC50 below 0.5 µM.

On to `CC(C)C[C@H](NC(=O)[C@@H]1CCCN1C(=O)[C@H](CC(C)C)NC(=O)[C@H](C)NC(=O)[C@H](Cc1ccc(O)cc1)NC(=O)[C@@H]1CCN1C(=O)[C@H](CCC(N)=O)NC(=O)[C@H](Cc1c[nH]c2ccccc12)NC(=O)[C@H](Cc1ccc(O)cc1)NC(=O)[C@H](Cc1ccc(O)cc1)NC(=O)[C@H](C)NC(=O)[C@H](CC(N)=O)NC(=O)[C@H](CO)NC(=O)[C@H](CCC(=O)O)NC(=O)[C@H](CCC(=O)O)NC(=O)[C@H](Cc1c[nH]c2ccccc12)NC(=O)[C@@H](NC(=O)[C@@H](N)Cc1ccccc1)[C@@H](C)O)C(=O)O` [FTWEESNAYYWQJYALPL] (H-FTWEESNAYYWQ[Aze]YALPL-OH), for which the IC50 is below 0.5 µM.

The test is the same for the next values; noted with them: inhibition of 125I-IL-1α binding to IL-1RtI; soluble peptide unless marked *.
Compound YFQPYALGL [YFQPYALGL] showed an IC50 of at most 100 µM. The same measure, in the same setting: the figure for `C[C@@H](O)[C@H](NC(=O)[C@H](Cc1c[nH]c2ccccc12)NC(=O)[C@H](CCC(=O)O)NC(=O)[C@@H](N)Cc1ccccc1)C(=O)N1CCC[C@H]1C(=O)N(C)CC(=O)N[C@@H](Cc1c[nH]c2ccccc12)C(=O)N[C@@H](Cc1ccc(O)cc1)C(=O)N[C@@H](CCC(N)=O)C(=O)N1CC[C@H]1C(=O)N[C@@H](Cc1ccc(O)cc1)C(N)=O` [FEWTPSarWYQJY--NH2] (H-FEWTP[Sar]WYQ[Aze]Y-NH2) is at most 0.5 µM.

Regarding `C[C@H](NC(=O)[C@H](Cc1c[nH]c2ccccc12)NC(=O)[C@H](Cc1ccc(O)cc1)NC(=O)CNC(=O)[C@@H]1CCCN1C(=O)[C@@H](NC(=O)[C@H](Cc1c[nH]c2ccccc12)NC(=O)[C@H](CCC(=O)O)NC(=O)[C@@H](N)Cc1ccccc1)[C@@H](C)O)C(=O)N1CC[C@H]1C(=O)N[C@@H](Cc1ccc(O)cc1)C(N)=O` [FEWTPGYWAJY--NH2] (H-FEWTPGYWA[Aze]Y-NH2), the IC50 was above 100 µM. Same read-out and setting: next, RWWQPYATPL [RWWQPYATPL]: at most 100 µM; `C[C@@H](O)[C@H](NC(=O)[C@H](Cc1c[nH]c2ccccc12)NC(=O)[C@H](CCC(=O)O)NC(=O)[C@@H](N)Cc1ccccc1)C(=O)N1CCC[C@H]1C(=O)NCC(=O)N[C@@H](Cc1ccc(C(=O)c2ccccc2)cc1)C(=O)N[C@@H](Cc1ccc(O)cc1)C(=O)N[C@@H](CCC(N)=O)C(=O)N1CC[C@H]1C(=O)N[C@@H](Cc1ccc(O)cc1)C(N)=O` [FEWTPG--Bpa--YQJY--NH2] (H-FEWTPG[Bpa]YQ[Aze]Y-NH2): at most 0.5 µM. The same measure, in the same setting: the figure for WGEWLQPYALPL [WGEWLQ PYALPL] is at most 100 µM; for `CC(=O)N[C@@H](Cc1ccccc1)C(=O)N[C@@H](CCC(=O)O)C(=O)N[C@@H](Cc1c[nH]c2ccccc12)C(=O)N[C@H](C(=O)N1CCC[C@H]1C(=O)NCC(=O)N[C@@H](Cc1ccc(O)cc1)C(=O)N[C@@H](Cc1ccc(O)cc1)C(=O)N[C@@H](CCC(N)=O)C(=O)N1CC[C@H]1C(=O)N[C@@H](Cc1ccc(C(=O)c2ccccc2)cc1)C(N)=O)[C@@H](C)O` [AcFEWTPGYYQJ--Bpa--NH2] (Ac-FEWTPGYYQ[Aze][Bpa]-NH2) it is at most 100 µM; for SWHSVYWQPYSVQSVPE [SWHS VYWQPYSVQ SVPE] it is at most 100 µM. With `C[C@@H](O)[C@H](NC(=O)[C@H](Cc1c[nH]c2ccccc12)NC(=O)[C@H](CCC(=O)O)NC(=O)[C@@H](N)Cc1ccccc1)C(=O)NCC(=O)NCC(=O)N[C@@H](Cc1ccc(O)cc1)C(=O)N[C@@H](Cc1c[nH]c2ccccc12)C(=O)N[C@@H](CCC(N)=O)C(=O)N1CC[C@H]1C(=O)N[C@@H](Cc1ccc(O)cc1)C(N)=O` [FEWTGGYWQJY--NH2] (H-FEWTGGYWQ[Aze]Y-NH2), the IC50 is at most 100 µM. Still for that read-out and setting: next, YYQPYALPL [YYQPYALPL]: at most 100 µM. The compound DNSSWYDSFLL [DNSSWYDSFLL] registered an IC50 of at most 100 µM. As for DYVWEQPYALPL [DYVWEQ PYALPL], the IC50 is at most 100 µM.

Compound SDIWYQPYALPL [SDIWYQ PYALPL] had an IC50 of at most 100 µM. Same read-out and setting: the figure for “VHVYWQPYSVQT [Peptide 3H5, VHVYWQPYSVQT]” is at most 100 µM. On the same count and under the same terms, the figure for `CC(C)[C@H](NC(=O)[C@H](Cc1c[nH]c2ccccc12)NC(=O)[C@H](CCC(=O)O)NC(=O)[C@@H](N)Cc1ccccc1)C(=O)N1CCC[C@H]1C(=O)NCC(=O)N[C@@H](Cc1ccc(O)cc1)C(=O)N[C@@H](Cc1ccc(O)cc1)C(=O)N[C@@H](CCC(N)=O)C(=O)N1CC[C@H]1C(=O)N[C@@H](Cc1ccc(O)cc1)C(N)=O` [FEWVPGYYQJY--NH2] (H-FEWVPGYYQ[Aze]Y-NH2) is at most 0.5 µM; for RGDYWQPYSVQS [3H9, 11, RGDYWQPYSVQS] it is at most 100 µM; for LFEQPYAKALGL [LFEQPYAKALGL] it is at most 100 µM.

GWYQPYVDGWR [GWYQPYVDGWR] showed an IC50 of at most 100 µM. Still for that read-out and setting: the figure for `CC(=O)N[C@@H](Cc1ccccc1)C(=O)N[C@@H](CCC(=O)O)C(=O)N[C@@H](Cc1c[nH]c2ccccc12)C(=O)N[C@H](C(=O)N1CCC[C@H]1C(=O)NCC(=O)N[C@@H](Cc1ccc(C(=O)c2ccccc2)cc1)C(=O)N[C@@H](Cc1ccc(O)cc1)C(=O)N[C@@H](CCC(N)=O)C(=O)N1CC[C@H]1C(=O)N[C@@H](Cc1ccc(O)cc1)C(N)=O)[C@@H](C)O` [AcFEWTPG--Bpa--YQJY--NH2] (Ac-FEWTPG[Bpa]YQ[Aze]Y-NH2) is at most 0.5 µM; for YWYQPYALGL [YWYQPYALGL] it is at most 100 µM; for DNTAWYESFLA [DNTAWYESFLA] it is at most 100 µM. On the same count and under the same terms, next, `C[C@@H](O)[C@H](NC(=O)[C@H](Cc1c[nH]c2ccccc12)NC(=O)[C@H](CCC(=O)O)NC(=O)[C@@H](N)Cc1cccc2ccccc12)C(=O)N1CCC[C@H]1C(=O)NCC(=O)N[C@@H](Cc1ccc(O)cc1)C(=O)N[C@@H](Cc1ccc(O)cc1)C(=O)N[C@@H](CCC(N)=O)C(=O)N1CC[C@H]1C(=O)N[C@@H](Cc1ccc(O)cc1)C(N)=O` [1Nap--EWTPGYYQJY--NH2] (H-[1Nal]EWTPGYYQ[Aze]Y-NH2): at most 0.5 µM; IWYQPYAMPL [IWYQPYAMPL]: at most 100 µM; AHTWWQPYALPL [AHTWWQ PYALPL]: at most 100 µM. On the same count and under the same terms, the figure for ESFWVQPYALPL [ESFWVQ PYALPL] is above 100 µM; for `C[C@@H](O)[C@H](NC(=O)[C@H](Cc1c[nH]c2ccccc12)NC(=O)[C@H](CCC(=O)O)NC(=O)[C@@H](N)Cc1ccccc1)C(=O)N1CCC[C@H]1C(=O)NCC(=O)N[C@@H](Cc1c[nH]c2ccccc12)C(=O)N[C@@H](Cc1ccc(O)cc1)C(=O)N[C@@H](CCC(N)=O)C(=O)N1CC[C@H]1C(=O)N[C@@H](Cc1ccc(O)cc1)C(N)=O` [FEWTPGWYQJY--NH2] (H-FEWTPGWYQ[Aze]Y-NH2) it is at most 0.5 µM; for WETWYQPYALPL [WETWYQ PYALPL] it is at most 100 µM. RFMYWQPYSVQR [RFMYWQPYSVQR] displayed an IC50 of at most 100 µM.

SYDWEQPYALPL [SYDWEQ PYALPL]: the IC50 is at most 100 µM. The same measure, in the same setting: the figure for `C[C@@H](O)[C@H](NC(=O)[C@H](Cc1c[nH]c2ccccc12)NC(=O)[C@H](CCC(=O)O)NC(=O)[C@@H](N)Cc1ccccc1)C(=O)N1CCC[C@H]1C(=O)NC(C)(C)C(=O)N[C@@H](Cc1ccc(O)cc1)C(=O)N[C@@H](Cc1c[nH]c2ccccc12)C(=O)N[C@@H](CCC(N)=O)C(=O)N1CC[C@H]1C(=O)N[C@@H](Cc1ccc(O)cc1)C(N)=O` [FEWTPAibYWQJY--NH2] (H-FEWTP[Aib]YWQ[Aze]Y-NH2) is at most 0.5 µM. Compound EGWWVQPYALPL [EGWWVQ PYALPL] returned an IC50 of at most 100 µM. Same read-out and setting: the figure for `C[C@@H](O)[C@H](NC(=O)[C@H](Cc1c[nH]c2ccccc12)NC(=O)[C@H](CCC(=O)O)NC(=O)[C@@H](N)Cc1ccc(C(=O)c2ccccc2)cc1)C(=O)N1CCC[C@H]1C(=O)NCC(=O)N[C@@H](Cc1ccc(O)cc1)C(=O)N[C@@H](Cc1ccc(O)cc1)C(=O)N[C@@H](CCC(N)=O)C(=O)N1CC[C@H]1C(=O)N[C@@H](Cc1ccc(O)cc1)C(N)=O` [Bpa--EWTPGYYQJY--NH2] (H-[Bpa]EWTPGYYQ[Aze]Y-NH2) is at most 0.5 µM; for ASEWWQPYALPL [ASEWWQ PYALPL] it is at most 100 µM.
